Patent publication US9788542B2, “Safened herbicidal compositions including 4-amino-3-chloro-5-fluoro-6-(4-chloro-2-fluoro-3-methoxyphenyl)pyridine-2-carbox) acid or a derivative thereof for use in corn (maize)” (Dow AgroSciences LLC, priority 2013, dated 2017)
“And” between values parts separate entries of the source, which are not always exact repeats. Equal entries are not always repeated.

The compounds below were run on ZEAMX = Zea mays L. (assay: Postemergence herbicidal safening in corn (maize), greenhouse, visual injury). Conditions: applied alone at 4 g ai/ha, postemergence, after 20-22 days.
Assay type: in vivo
Method: (§1) When required to ensure good germination and healthy plants, a fungicide treatment and/or other chemical or physical treatment was applied. The plants were grown for 7-36 days in a greenhouse with an approximate 14 hour photoperiod which was maintained at about 18° C. during the day and 17° C. during the night. Nutrients and water were added on a regular basis and supplemental lighting was provided with overhead metal halide 1000-Watt lamps as necessary. The plants were employed for testing when they reached the second or third true leaf stage. Treatments consisted of ester (benzyl) compound of formula (I) (Compound A benzyl ester) and various safeners alone and in combination. Compound of formula (I) and safener components were applied on active ingredient basis. For treatments comprised of formulated compounds, measured amounts of compound of formula (I) were placed individually in 25 mL glass vials and diluted in a volume of 1.25% volume per volume (v/v) Agri-dex crop oil concentrate to obtain stock solutions. […] Stock solutions of the formulated safeners were prepared following the same procedure. Application solutions were prepared by mixing the required amount of each stock solution and addition of an appropriate volume of an aqueous mixture of 1.25% v/v of Agri-dex crop oil concentrate to the appropriate final concentrations of application solutions. […] Application solutions were prepared by adding an appropriate amount of each stock solution and diluted to the appropriate final concentrations with the addition of an appropriate volume of an aqueous mixture of 1.25% (v/v) Agri-dex crop oil concentrate. Application solutions were applied to the plant material with an overhead Mandel track sprayer equipped with […] nozzles calibrated to deliver 187 liters per hectare (L/ha) over an application area of 0.503 square meters (m^2) at a spray height of 18 inches ([…]) above average plant canopy. Control plants were sprayed in the same manner with the solvent blank. The treated plants and control plants were placed in a greenhouse as described above and watered by sub-irrigation to prevent wash-off of the test compounds. […] Colby's equation was used to determine the herbicidal effects expected from the mixtures (Colby, S. R. Calculation of the synergistic and antagonistic response of herbicide combinations. Weeds 1967, 15, 20-22.). The following equation was used to calculate the expected activity of mixtures containing two active ingredients, A and B: […] A=observed efficacy of active ingredient A at the same concentration as used in the mixture; B=observed efficacy of active ingredient B at the same concentration as used in the mixture.
With `CCOC(=O)C1=NOC(c2ccccc2)(c2ccccc2)C1` [Isoxadifen-ethyl, ethyl 4,5-dihydro-5,5-diphenyl-3-isoxazole-carboxylate] the “ZEAMX Obs (observed visual injury, 0 = no injury, 100 = complete kill)” value was 0%. For `COc1c(Cl)ccc(-c2nc(C(=O)OCc3ccccc3)c(Cl)c(N)c2F)c1F` [Compound A benzyl ester], the “ZEAMX Obs (observed visual injury, 0 = no injury, 100 = complete kill)” value was 10%.

Same assay, conditions: applied alone at 5 g ai/ha, postemergence, after 20-22 days
In the case of `N#C/C(=N/OCC1OCCO1)c1ccccc1` [Oxabetrinil, α-[(1,3-dioxolan-2-yl)methoxyimino]benzeneacetonitrile], the “ZEAMX Obs (observed visual injury)” value is reported as 0%. `C=CCN(CC=C)C(=O)C(Cl)Cl` [Dichlormid, N,N-diallyl-2,2-dichloroacetamide] was tested, and the “ZEAMX Obs (observed visual injury)” value was 0%. `O=C1OC(=O)c2cccc3cccc1c23` [Naphthalic anhydride, naphthalene-1,8-dicarboxylic anhydride] was tested, and the “ZEAMX Obs (observed visual injury)” value was 0%. With `CC1(C)OC(c2ccco2)CN1C(=O)C(Cl)Cl` (racemic) [Furilazole, (±)-3-(dichloroacetyl)-5-(2-furanyl)-2,2-dimethyloxazolidine] the “ZEAMX Obs (observed visual injury)” value was 0%. For `CCOC(=O)C1=NOC(c2ccccc2)(c2ccccc2)C1` [Isoxadifen-ethyl, ethyl 4,5-dihydro-5,5-diphenyl-3-isoxazole-carboxylate], the “ZEAMX Obs (observed visual injury)” value was 0%.

Same assay, conditions: applied alone at 6 g ai/ha, postemergence, after 20-22 days
`CCOC(=O)C1=NOC(c2ccccc2)(c2ccccc2)C1` [Isoxadifen-ethyl, ethyl 4,5-dihydro-5,5-diphenyl-3-isoxazole-carboxylate] was tested, and the “ZEAMX Obs (observed visual injury)” value was 0%. With `COc1c(Cl)ccc(-c2nc(C(=O)OCc3ccccc3)c(Cl)c(N)c2F)c1F` [Compound A benzyl ester] the “ZEAMX Obs (observed visual injury)” value was 16%.

Same assay, conditions: applied alone at 8 g ai/ha, postemergence, after 20-22 days
`CCOC(=O)C1=NOC(c2ccccc2)(c2ccccc2)C1` [Isoxadifen-ethyl, ethyl 4,5-dihydro-5,5-diphenyl-3-isoxazole-carboxylate] was tested, and the “ZEAMX Obs (observed visual injury)” value was 0%.

Same assay, conditions: applied alone at 12 g ai/ha, postemergence, after 20-22 days
`CCOC(=O)C1=NOC(c2ccccc2)(c2ccccc2)C1` [Isoxadifen-ethyl, ethyl 4,5-dihydro-5,5-diphenyl-3-isoxazole-carboxylate] was tested, and the “ZEAMX Obs (observed visual injury)” value was 0%.

Same assay, conditions: applied alone at 20 g ai/ha, postemergence, after 20-22 days
With `CCOC(=O)C1=NOC(c2ccccc2)(c2ccccc2)C1` [Isoxadifen-ethyl, ethyl 4,5-dihydro-5,5-diphenyl-3-isoxazole-carboxylate] the “ZEAMX Obs (observed visual injury)” value was 0%. For `COc1c(Cl)ccc(-c2nc(C(=O)OCc3ccccc3)c(Cl)c(N)c2F)c1F` [Compound A benzyl ester], the “ZEAMX Obs (observed visual injury)” value was 32%.

Same assay, conditions: applied alone at 40 g ai/ha, postemergence, after 20-22 days
For `N#C/C(=N/OCC1OCCO1)c1ccccc1` [Oxabetrinil, α-[(1,3-dioxolan-2-yl)methoxyimino]benzeneacetonitrile], the “ZEAMX Obs (observed visual injury)” value was 0%. `C=CCN(CC=C)C(=O)C(Cl)Cl` [Dichlormid, N,N-diallyl-2,2-dichloroacetamide] was tested, and the “ZEAMX Obs (observed visual injury)” value was 0%. `O=C1OC(=O)c2cccc3cccc1c23` [Naphthalic anhydride, naphthalene-1,8-dicarboxylic anhydride] was tested, and the “ZEAMX Obs (observed visual injury)” value was 0%. For `CC1(C)OC(c2ccco2)CN1C(=O)C(Cl)Cl` (racemic) [Furilazole, (±)-3-(dichloroacetyl)-5-(2-furanyl)-2,2-dimethyloxazolidine], the “ZEAMX Obs (observed visual injury)” value was 0%. With `CCOC(=O)C1=NOC(c2ccccc2)(c2ccccc2)C1` [Isoxadifen-ethyl, ethyl 4,5-dihydro-5,5-diphenyl-3-isoxazole-carboxylate] the “ZEAMX Obs (observed visual injury)” value was 0%. `COc1c(Cl)ccc(-c2nc(C(=O)OCc3ccccc3)c(Cl)c(N)c2F)c1F` [Compound A benzyl ester] was tested, and the “ZEAMX Obs (observed visual injury)” value was 45% and 23%.

Same assay, conditions: applied alone at 80 g ai/ha, postemergence, after 20-22 days
For `CCOC(=O)C1=NOC(c2ccccc2)(c2ccccc2)C1` [Isoxadifen-ethyl, ethyl 4,5-dihydro-5,5-diphenyl-3-isoxazole-carboxylate], the “ZEAMX Obs (observed visual injury)” value was 0%.

Same assay, conditions: applied alone at 160 g ai/ha, postemergence, after 20-22 days
For `CCOC(=O)C1=NOC(c2ccccc2)(c2ccccc2)C1` [Isoxadifen-ethyl, ethyl 4,5-dihydro-5,5-diphenyl-3-isoxazole-carboxylate], the “ZEAMX Obs (observed visual injury)” value was 3%.

What follows are compounds tested on ABUTH = Abutilon theophrasti Medik. (assay: Postemergence herbicidal activity, greenhouse, visual injury). Conditions: Abutilon theophrasti, post-emergence, 480 h, read-out: ABUTH Obs (observed visual injury).
Assay type: in vivo
Method: as §1
`CCOC(=O)C1=NOC(c2ccccc2)(c2ccccc2)C1` [Isoxadifen-ethyl, ethyl 4,5-dihydro-5,5-diphenyl-3-isoxazole-carboxylate] gave a pest or weed control at 5 g/ha of 0% and a pest or weed control at 40 g/ha of 0%.

Same assay, conditions: Abutilon theophrasti, post-emergence, 480 h; applied alone at 5 g ai/ha, postemergence, after 20-22 days; read-out: ABUTH Obs (observed visual injury)
`N#C/C(=N/OCC1OCCO1)c1ccccc1` [Oxabetrinil, α-[(1,3-dioxolan-2-yl)methoxyimino]benzeneacetonitrile] gave a pest or weed control at 5 g/ha of 0%. Work on `C=CCN(CC=C)C(=O)C(Cl)Cl` [Dichlormid, N,N-diallyl-2,2-dichloroacetamide] yielded a pest or weed control at 5 g/ha of 0%. `O=C1OC(=O)c2cccc3cccc1c23` [Naphthalic anhydride, naphthalene-1,8-dicarboxylic anhydride] showed a pest or weed control at 5 g/ha of 0%. `CC1(C)OC(c2ccco2)CN1C(=O)C(Cl)Cl` (racemic) [Furilazole, (±)-3-(dichloroacetyl)-5-(2-furanyl)-2,2-dimethyloxazolidine] gave a pest or weed control at 5 g/ha of 0%.

Same assay, conditions: Abutilon theophrasti, post-emergence, 480 h; applied alone at 40 g ai/ha, postemergence, after 20-22 days; read-out: ABUTH Obs (observed visual injury)
`N#C/C(=N/OCC1OCCO1)c1ccccc1` [Oxabetrinil, α-[(1,3-dioxolan-2-yl)methoxyimino]benzeneacetonitrile] was tested, and the pest or weed control at 40 g/ha was 0%. `C=CCN(CC=C)C(=O)C(Cl)Cl` [Dichlormid, N,N-diallyl-2,2-dichloroacetamide] was tested, and the pest or weed control at 40 g/ha was 0%. With `O=C1OC(=O)c2cccc3cccc1c23` [Naphthalic anhydride, naphthalene-1,8-dicarboxylic anhydride] the pest or weed control at 40 g/ha was 0%. In the case of `CC1(C)OC(c2ccco2)CN1C(=O)C(Cl)Cl` (racemic) [Furilazole, (±)-3-(dichloroacetyl)-5-(2-furanyl)-2,2-dimethyloxazolidine], the pest or weed control at 40 g/ha is reported as 0%.

Same assay, conditions: applied alone at 40 g ai/ha, postemergence, after 20-22 days
`COc1c(Cl)ccc(-c2nc(C(=O)OCc3ccccc3)c(Cl)c(N)c2F)c1F` [Compound A benzyl ester] was tested, and the “ABUTH Obs (observed visual injury)” value was 95%.

The compounds below were run on HELAN = Helianthus annuus L. in the same assay as above. Conditions: Helianthus annuus, post-emergence, 480 h, read-out: HELAN Obs (observed visual injury).
Assay type: in vivo
Method: as §1
Compound `CCOC(=O)C1=NOC(c2ccccc2)(c2ccccc2)C1` [Isoxadifen-ethyl, ethyl 4,5-dihydro-5,5-diphenyl-3-isoxazole-carboxylate] has a pest or weed control at 5 g/ha of 0% and a pest or weed control at 40 g/ha of 0%.

Same assay, conditions: Helianthus annuus, post-emergence, 480 h; applied alone at 5 g ai/ha, postemergence, after 20-22 days; read-out: HELAN Obs (observed visual injury)
`N#C/C(=N/OCC1OCCO1)c1ccccc1` [Oxabetrinil, α-[(1,3-dioxolan-2-yl)methoxyimino]benzeneacetonitrile] was tested, and the pest or weed control at 5 g/ha was 0%. With `C=CCN(CC=C)C(=O)C(Cl)Cl` [Dichlormid, N,N-diallyl-2,2-dichloroacetamide] the pest or weed control at 5 g/ha was 0%. `O=C1OC(=O)c2cccc3cccc1c23` [Naphthalic anhydride, naphthalene-1,8-dicarboxylic anhydride] gave a pest or weed control at 5 g/ha of 0%. `CC1(C)OC(c2ccco2)CN1C(=O)C(Cl)Cl` (racemic) [Furilazole, (±)-3-(dichloroacetyl)-5-(2-furanyl)-2,2-dimethyloxazolidine] was tested, and the pest or weed control at 5 g/ha was 0%.

Same assay, conditions: Helianthus annuus, post-emergence, 480 h; applied alone at 40 g ai/ha, postemergence, after 20-22 days; read-out: HELAN Obs (observed visual injury)
For `N#C/C(=N/OCC1OCCO1)c1ccccc1` [Oxabetrinil, α-[(1,3-dioxolan-2-yl)methoxyimino]benzeneacetonitrile], the pest or weed control at 40 g/ha was 0%. In the case of `C=CCN(CC=C)C(=O)C(Cl)Cl` [Dichlormid, N,N-diallyl-2,2-dichloroacetamide], the pest or weed control at 40 g/ha is reported as 0%. With `O=C1OC(=O)c2cccc3cccc1c23` [Naphthalic anhydride, naphthalene-1,8-dicarboxylic anhydride] the pest or weed control at 40 g/ha was 0%. With `CC1(C)OC(c2ccco2)CN1C(=O)C(Cl)Cl` (racemic) [Furilazole, (±)-3-(dichloroacetyl)-5-(2-furanyl)-2,2-dimethyloxazolidine] the pest or weed control at 40 g/ha was 0%.

Same assay, conditions: applied alone at 40 g ai/ha, postemergence, after 20-22 days
With `COc1c(Cl)ccc(-c2nc(C(=O)OCc3ccccc3)c(Cl)c(N)c2F)c1F` [Compound A benzyl ester] the “HELAN Obs (observed visual injury)” value was 94%.
